# Source: ChEMBL document CHEMBL4665836, “Overcoming β-Lactam resistance in Pseudomonas aeruginosa using non-canonical tobramycin-based antibiotic adjuvants” (2020)
# How the values were obtained:
# Format in all cases: functional
# [1] = system: Pseudomonas aeruginosa; test: Potentiation of imipenem-induced antibacterial activity against carbapenem-resistant Pseudomonas aeruginosa 86052 clinical isolate assessed as fold reduction in imipenem MIC at 8 uM in presence of beta-lactamase inhibitor, rele-bactam
# [2] = system: Pseudomonas aeruginosa; test: Potentiation of imipenem-induced antibacterial activity against carbapenem-resistant Pseudomonas aeruginosa 107092 clinical isolate assessed as fold reduction in imipenem MIC at 8 uM in presence of beta-lactamase inhibitor, rele-bactam
# [3] = system: Pseudomonas aeruginosa; test: Potentiation of imipenem-induced antibacterial activity against carbapenem-resistant Pseudomonas aeruginosa 108590 clinical isolate assessed as fold reduction in imipenem MIC at 8 uM in presence of beta-lactamase inhibitor, rele-bactam
# [4] = system: Pseudomonas aeruginosa; test: Potentiation of aztreonam-induced antibacterial activity against carbapenem-resistant Pseudomonas aeruginosa 108590 clinical isolate assessed as fold reduction in aztreonam MIC at 8 uM in presence of beta-lactamase inhibitor, avi-bactam
# [5] = system: Pseudomonas aeruginosa; test: Potentiation of ceftazidime-induced antibacterial activity against carbapenem-resistant Pseudomonas aeruginosa 108590 clinical isolate assessed as fold reduction in ceftazidime MIC at 8 uM in presence of beta-lactamase inhibitor, avi-bactam
# [6] = system: Pseudomonas aeruginosa; test: Potentiation of ceftazidime-induced antibacterial activity against carbapenem-resistant Pseudomonas aeruginosa 107092 clinical isolate assessed as fold reduction in ceftazidime MIC at 8 uM in presence of beta-lactamase inhibitor, avi-bactam
# [7] = system: Pseudomonas aeruginosa; test: Potentiation of ceftazidime-induced antibacterial activity against carbapenem-resistant Pseudomonas aeruginosa 109084 clinical isolate assessed as fold reduction in ceftazidime MIC at 8 uM in presence of beta-lactamase inhibitor, avi-bactam
# [8] = system: Pseudomonas aeruginosa; test: Potentiation of imipenem-induced antibacterial activity against carbapenem-resistant Pseudomonas aeruginosa PAO200 harboring mexAB-oprM efflux deficient mutant assessed as imipenem MIC at 8 uM by checkerboard assay (reference value: 4 ug/ml)
# [9] = system: Pseudomonas aeruginosa; test: Potentiation of imipenem-induced antibacterial activity against carbapenem-resistant Pseudomonas aeruginosa 107092 clinical isolate assessed as imipenem MIC at 8 uM by checkerboard assay (reference value: 64 ug/ml)
# [10] = system: Pseudomonas aeruginosa; test: Potentiation of imipenem-induced antibacterial activity against carbapenem-resistant Pseudomonas aeruginosa 86052 clinical isolate assessed as imipenem MIC at 8 uM by checkerboard assay (reference value: 32 ug/ml)
# [11] = system: Pseudomonas aeruginosa; test: Potentiation of imipenem-induced antibacterial activity against carbapenem and colistin-resistant Pseudomonas aeruginosa 91433 clinical isolate assessed as imipenem MIC at 8 uM by checkerboard assay (reference value: 8 ug/ml)
# [12] = system: Pseudomonas aeruginosa; test: Potentiation of imipenem-induced antibacterial activity against carbapenem-resistant Pseudomonas aeruginosa 262-101856 clinical isolate assessed as imipenem MIC at 8 uM by checkerboard assay (reference value: 32 ug/ml)
# [13] = system: Pseudomonas aeruginosa; test: Potentiation of imipenem-induced antibacterial activity against carbapenem-resistant Pseudomonas aeruginosa 260-97103 clinical isolate assessed as imipenem MIC at 8 uM by checkerboard assay (reference value: 16 ug/ml)
# [14] = system: Pseudomonas aeruginosa; test: Potentiation of imipenem-induced antibacterial activity against carbapenem-resistant Pseudomonas aeruginosa 259-96918 clinical isolate expressing MBL assessed as imipenem MIC at 8 uM by checkerboard assay (reference value: 64 ug/ml)
# [15] = system: Pseudomonas aeruginosa; test: Potentiation of imipenem-induced antibacterial activity against wild-type Pseudomonas aeruginosa PAO1 assessed as imipenem MIC at 8 uM by checkerboard assay (reference value: 4 ug/ml)
# [16] = system: Pseudomonas aeruginosa; test: Potentiation of ceftazidime-induced antibacterial activity against carbapenem-resistant Pseudomonas aeruginosa PAO200 harboring mexAB-oprM efflux deficient mutant assessed as ceftazidime MIC at 8 uM by checkerboard assay (reference value: 1 ug/ml)
# [17] = system: Pseudomonas aeruginosa; test: Potentiation of ceftazidime-induced antibacterial activity against carbapenem-resistant Pseudomonas aeruginosa 107092 clinical isolate assessed as ceftazidime MIC at 8 uM by checkerboard assay (reference value: 128 ug/ml)
# [18] = system: Pseudomonas aeruginosa; test: Potentiation of ceftazidime-induced antibacterial activity against carbapenem-resistant Pseudomonas aeruginosa 88949 clinical isolate assessed as ceftazidime MIC at 8 uM by checkerboard assay (reference value: 64 ug/ml)
# [19] = system: Pseudomonas aeruginosa; test: Potentiation of ceftazidime-induced antibacterial activity against carbapenem-resistant Pseudomonas aeruginosa 86052 clinical isolate assessed as ceftazidime MIC at 8 uM by checkerboard assay (reference value: 64 ug/ml)
# [20] = system: Pseudomonas aeruginosa; test: Potentiation of ceftazidime-induced antibacterial activity against carbapenem-resistant Pseudomonas aeruginosa 101885 clinical isolate assessed as ceftazidime MIC at 8 uM by checkerboard assay (reference value: 8 ug/ml)
# [21] = system: Pseudomonas aeruginosa; test: Potentiation of ceftazidime-induced antibacterial activity against carbapenem-resistant Pseudomonas aeruginosa 100036 clinical isolate assessed as ceftazidime MIC at 8 uM by checkerboard assay (reference value: 8 ug/ml)
# [22] = system: Pseudomonas aeruginosa; test: Potentiation of ceftazidime-induced antibacterial activity against wild type Pseudomonas aeruginosa PAO1 assessed as ceftazidime MIC at 8 uM by checkerboard assay (reference value: 2 ug/ml)
# [23] = system: Pseudomonas aeruginosa; test: Potentiation of aztreonam-induced antibacterial activity against carbapenem-resistant Pseudomonas aeruginosa PAO200 harboring mexAB-oprM efflux deficient mutant assessed as aztreonam MIC at 8 uM by checkerboard assay (reference value: 0.25 ug/ml)
# [24] = system: Pseudomonas aeruginosa; test: Potentiation of aztreonam-induced antibacterial activity against carbapenem-resistant Pseudomonas aeruginosa 109084 clinical isolate assessed as aztreonam MIC at 8 uM by checkerboard assay (reference value: 64 ug/ml)
# [25] = system: Pseudomonas aeruginosa; test: Potentiation of aztreonam-induced antibacterial activity against carbapenem-resistant Pseudomonas aeruginosa 108590 clinical isolate assessed as aztreonam MIC at 8 uM by checkerboard assay (reference value: 32 ug/ml)
# [26] = system: Pseudomonas aeruginosa; test: Potentiation of aztreonam-induced antibacterial activity against carbapenem-resistant Pseudomonas aeruginosa 107092 clinical isolate assessed as aztreonam MIC at 8 uM by checkerboard assay (reference value: 64 ug/ml)
# [27] = system: Pseudomonas aeruginosa; test: Potentiation of aztreonam-induced antibacterial activity against carbapenem-resistant Pseudomonas aeruginosa 86052 clinical isolate assessed as aztreonam MIC at 8 uM by checkerboard assay (reference value: 64 ug/ml)
# [28] = system: Pseudomonas aeruginosa; test: Potentiation of aztreonam-induced antibacterial activity against carbapenem and colistin-resistant Pseudomonas aeruginosa 114228 clinical isolate assessed as aztreonam MIC at 8 uM by checkerboard assay (reference value: 32 ug/ml)
# [29] = system: Pseudomonas aeruginosa; test: Potentiation of aztreonam-induced antibacterial activity against carbapenem and colistin-resistant Pseudomonas aeruginosa 101243 clinical isolate assessed as aztreonam MIC at 8 uM by checkerboard assay (reference value: 32 ug/ml)
# [30] = system: Pseudomonas aeruginosa; test: Potentiation of aztreonam-induced antibacterial activity against wild type Pseudomonas aeruginosa PAO1 assessed as aztreonam MIC at 8 uM by checkerboard assay (reference value: 4 ug/ml)
# [31] = system: Pseudomonas aeruginosa; test: Antibacterial activity against Pseudomonas aeruginosa PAO200 harboring mexAB-oprM efflux deficient mutant
# [32] = system: Pseudomonas aeruginosa; test: Potentiation of ceftazidime-induced antibacterial activity against carbapenem-resistant Pseudomonas aeruginosa 259-96918 clinical isolate expressing metallo-beta-lactamase assessed as ceftazidime MIC at 8 uM by checkerboard assay (reference value: 512 ug/ml)
# [33] = system: Pseudomonas aeruginosa; test: Potentiation of imipenem-induced antibacterial activity against wild type Pseudomonas aeruginosa PAO1 assessed as fold reduction in imipenem MIC at 8 uM
SMILES,fold change (FC) [1],fold change (FC) [2],fold change (FC) [3],fold change (FC) [4],fold change (FC) [5],fold change (FC) [6],fold change (FC) [7],MIC [8] [µg/mL],MIC [9] [µg/mL],MIC [10] [µg/mL],MIC [11] [µg/mL],MIC [12] [µg/mL],MIC [13] [µg/mL],MIC [14] [µg/mL],MIC [15] [µg/mL],MIC [16] [µg/mL],MIC [17] [µg/mL],MIC [18] [µg/mL],MIC [19] [µg/mL],MIC [20] [µg/mL],further results
N=C(N)NC[C@H]1O[C@H](O[C@H]2[C@H](OCCCCCCCCCCCCN3CCN(c4cc5c(cc4F)c(=O)c(C(=O)O)cn5C4CC4)CC3)[C@@H](O[C@H]3O[C@H](CO)[C@@H](O)[C@H](NC(=N)N)[C@H]3O)[C@H](NC(=N)N)C[C@@H]2NC(=N)N)[C@H](NC(=N)N)C[C@@H]1O.O=C(O)C(F)(F)F.O=C(O)C(F)(F)F.O=C(O)C(F)(F)F.O=C(O)C(F)(F)F.O=C(O)C(F)(F)F.O=C(O)C(F)(F)F,16,16,16,16,16,16,16,2,32,16,8,16,8,64,1,0.25,32,32,32,2,MIC [21]: 6 µg/mL; MIC [22]: 0.25 µg/mL; MIC [23]: 0.06 µg/mL; MIC [24]: 32 µg/mL; MIC [25]: 2 µg/mL; MIC [26]: 32 µg/mL; MIC [27]: 32 µg/mL; MIC [28]: 8 µg/mL; MIC [29]: 4 µg/mL; MIC [30]: 0.5 µg/mL; MIC [31]: 16 µg/mL; MIC [32]: 512 µg/mL; fold change (FC) [33]: 2
NC[C@H]1O[C@H](O[C@H]2[C@H](OCCCCc3cn(CCCCO[C@@H]4[C@@H](O)[C@H](N)C[C@H](N)[C@H]4O[C@H]4O[C@H](CN)[C@@H](O)C[C@H]4N)nn3)[C@@H](O)[C@H](N)C[C@@H]2N)[C@H](N)C[C@@H]1O.O=C(O)C(F)(F)F.O=C(O)C(F)(F)F.O=C(O)C(F)(F)F.O=C(O)C(F)(F)F.O=C(O)C(F)(F)F.O=C(O)C(F)(F)F.O=C(O)C(F)(F)F.O=C(O)C(F)(F)F,16,16,16,16,16,16,16,1,32,16,8,4,16,64,2,0.25,128,64,64,1,MIC [21]: 4 µg/mL; MIC [22]: 0.5 µg/mL; MIC [23]: 0.06 µg/mL; MIC [24]: 16 µg/mL; MIC [25]: 16 µg/mL; MIC [26]: 32 µg/mL; MIC [27]: 32 µg/mL; MIC [28]: 16 µg/mL; MIC [29]: 8 µg/mL; MIC [30]: 1 µg/mL; MIC [31]: > 128 µg/mL; MIC [32]: 128 µg/mL; fold change (FC) [33]: 2
